Data on one compound can be found in ChEMBL document CHEMBL5370665, “Insight from Linker Investigations: Discovery of a Novel Phenylbenzothiazole Necroptosis Inhibitor Targeting Receptor-Interacting Protein Kinase 1 (RIPK1) from a Phenoxybenzothiazole Compound with Dual RIPK1/3 Targeting Activity” (J Med Chem, 2023).

Data set [1] has as its target T1, Receptor-interacting serine/threonine-protein kinase 1 (Homo sapiens, UniProt Q13546).
T1 sequence (Q13546 whole entry): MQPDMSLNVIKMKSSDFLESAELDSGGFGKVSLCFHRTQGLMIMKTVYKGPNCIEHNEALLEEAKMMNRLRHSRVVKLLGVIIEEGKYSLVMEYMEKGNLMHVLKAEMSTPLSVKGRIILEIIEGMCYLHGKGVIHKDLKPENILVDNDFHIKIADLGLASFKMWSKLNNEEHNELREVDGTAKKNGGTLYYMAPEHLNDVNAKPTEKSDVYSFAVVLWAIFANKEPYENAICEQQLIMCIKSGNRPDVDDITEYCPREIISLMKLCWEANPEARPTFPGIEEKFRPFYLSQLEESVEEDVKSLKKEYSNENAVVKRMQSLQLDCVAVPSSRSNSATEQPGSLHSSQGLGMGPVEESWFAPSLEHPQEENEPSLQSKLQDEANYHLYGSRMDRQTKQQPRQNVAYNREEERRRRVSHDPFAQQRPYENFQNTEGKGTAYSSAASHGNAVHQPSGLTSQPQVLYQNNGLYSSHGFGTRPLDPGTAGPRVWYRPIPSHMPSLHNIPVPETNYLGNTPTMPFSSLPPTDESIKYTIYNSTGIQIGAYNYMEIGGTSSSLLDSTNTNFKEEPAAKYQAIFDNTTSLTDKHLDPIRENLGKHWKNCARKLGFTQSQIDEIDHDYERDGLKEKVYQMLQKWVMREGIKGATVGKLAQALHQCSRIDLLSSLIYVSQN
The experiment in a line: Binding affinity to recombinant RIPK1 (unknown origin) assessed as dissociation constant incubated for 1 hr by KINOMEscanTM assay.

The target in data set [2] is Receptor-interacting serine/threonine-protein kinase 3 (Homo sapiens, UniProt Q9Y572). The experiment in a line: Binding affinity to recombinant RIPK3 (unknown origin) assessed as dissociation constant incubated for 1 hr by KINOMEscanTM assay.
Data set [3] is described as follows: Cytotoxicity against human HT-29 cells assessed as reduction in cell viability incubated for 16 to 24 hrs by CellTiter-Glo Luminescent cell viability assay. Format: toxicity, cell-based. The settings on record: time 16-24 hrs.
For data set [4], the system named is HT-29. The data set can be described thus: Anti-necroptic activity against human HT-29 cells assessed as inhibition of TCZ (human TNFalpha, cycloheximide and z-VAD-FMK) induced necroptosis at 125 to 500 nM pretreated with compound followed by TCZ stimulation for 18 hrs by CellTiter-Glo Luminescent cell viability assay. Format: functional, cell-based. The settings on record: dose 125-500 nM. (In general: ATP-based viability assays read luminescence as a measure of living cells.)

For data set [5], the system named is HT-29. The data set can be described thus: Anti-apoptotic activity against human HT-29 cells assessed as inhibition of TC (human TNFalpha, cycloheximide) induced apoptosis upto 20 uM pretreated with compound followed by TC stimulation for 36 hrs by CellTiter-Glo Luminescent cell viability assay. Format: functional, cell-based.
The target in data set [6] is T2, Mixed lineage kinase domain-like protein (Homo sapiens) (UniProt Q8NB16).
T2 sequence (whole entry): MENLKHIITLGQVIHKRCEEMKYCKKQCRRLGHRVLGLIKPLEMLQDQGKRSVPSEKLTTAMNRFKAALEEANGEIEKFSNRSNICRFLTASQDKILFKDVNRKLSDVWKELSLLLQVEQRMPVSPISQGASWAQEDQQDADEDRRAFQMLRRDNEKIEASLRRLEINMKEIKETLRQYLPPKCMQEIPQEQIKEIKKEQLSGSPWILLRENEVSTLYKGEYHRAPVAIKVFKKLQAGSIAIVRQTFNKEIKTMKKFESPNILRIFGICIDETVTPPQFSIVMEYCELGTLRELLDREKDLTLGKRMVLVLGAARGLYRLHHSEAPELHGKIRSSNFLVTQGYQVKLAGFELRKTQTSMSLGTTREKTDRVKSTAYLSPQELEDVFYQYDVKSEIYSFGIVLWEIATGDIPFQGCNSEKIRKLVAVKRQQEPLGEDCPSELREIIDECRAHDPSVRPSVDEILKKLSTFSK
The experiment in a line: Inhibition of MLKL phosphorylation in TSZ induced human HT-29 cells at 1 to 1000 nM pretreated with compound followed by TSZ stimulation for 6 hrs by Western blot analysis. Type of data set: cell-based. The settings on record: dose 1-1000 nM. Background: A western blot detects proteins with antibodies after separation by electrophoresis.

Data set [7] concerns Mus musculus. The data set can be described thus: Anti-inflammatory activity against C57BL/6J mouse model of TNFalpha-induced systemic inflammatory response syndrome (SIRS) assessed as decrease in IL-6 level in spleen at 1.25 to 5 mg/kg,po 2 hrs prior to mTNFalpha and z-VAD-FMK stimulation for 8 hrs by ELISA. Type of data set: functional, organism-based. The settings on record: dose 1.25-5 mg/kg, time 10.0 hrs. A general note: In an ELISA, binding on a coated surface is turned into a signal by an enzyme label.

The test system of data set [8] is Mus musculus. The experiment in a line: Anti-inflammatory activity against C57BL/6J mouse model of TNFalpha-induced systemic inflammatory response syndrome (SIRS) assessed as decrease in IL-6 level in lung at 1.25 to 5 mg/kg,po 2 hrs prior to mTNFalpha and z-VAD-FMK stimulation for 8 hrs by ELISA. Type of data set: functional, organism-based. The settings on record: dose 1.25-5 mg/kg, time 10.0 hrs.

Data set [9] deals with Mus musculus. The experiment in a line: Anti-inflammatory activity against C57BL/6J mouse model of TNFalpha-induced systemic inflammatory response syndrome (SIRS) assessed as decrease in IL-1beta level in heart at 1.25 to 5 mg/kg,po 2 hrs prior to mTNFalpha and z-VAD-FMK stimulation for 8 hrs by ELISA. Format: functional, organism-based. The settings on record: dose 1.25-5 mg/kg, time 10.0 hrs.

Data set [10] deals with Mus musculus. The data set can be described thus: Anti-inflammatory activity against C57BL/6J mouse model of TNFalpha-induced systemic inflammatory response syndrome (SIRS) assessed as decrease in IL-1beta level in brain at 1.25 to 5 mg/kg,po 2 hrs prior to mTNFalpha and z-VAD-FMK stimulation for 8 hrs by ELISA. The settings on record: dose 1.25-5 mg/kg, time 10.0 hrs. Format: functional, organism-based.

The test system of data set [11] is Mus musculus. The experiment in a line: Anti-inflammatory activity against C57BL/6J mouse model of TNFalpha-induced systemic inflammatory response syndrome (SIRS) assessed as decrease in IL-1beta level in liver at 1.25 to 5 mg/kg,po 2 hrs prior to mTNFalpha and z-VAD-FMK stimulation for 8 hrs by ELISA. Type of data set: functional, organism-based. The settings on record: dose 1.25-5 mg/kg, time 10.0 hrs.

Data set [12] has as its system Mus musculus. The experiment in a line: Anti-inflammatory activity against C57BL/6J mouse model of TNFalpha-induced systemic inflammatory response syndrome (SIRS) assessed as decrease in IL-1beta level in kidney at 1.25 to 5 mg/kg,po 2 hrs prior to mTNFalpha and z-VAD-FMK stimulation for 8 hrs by ELISA. Type of data set: functional, organism-based. The settings on record: dose 1.25-5 mg/kg, time 10.0 hrs.

For data set [13], the system named is Mus musculus. The experiment in a line: Anti-inflammatory activity against C57BL/6J mouse model of TNFalpha-induced systemic inflammatory response syndrome (SIRS) assessed as decrease in serum IL-1beta level at 1.25 to 5 mg/kg,po 2 hrs prior to mTNFalpha and z-VAD-FMK stimulation for 8 hrs by ELISA. Type of data set: functional, organism-based. The settings on record: dose 1.25-5 mg/kg, time 10.0 hrs.

Data set [14] is described as follows: Acute toxicity in mouse assessed as behavioral changes at 100 to 200 mg/kg,IG and measured upto 14 days. Format: organism-based. The settings on record: in vivo, po, 336 h, dose 100-200 mg/kg, time < 14 day.
Data set [15] can be described thus: Acute toxicity in mouse assessed as pathological damage in liver at 100 to 200 mg/kg,IG and measured after 14 days by H and E staining based microscopy. Format: organism-based. The settings on record: in vivo, po, 336 h, dose 100-200 mg/kg, time 14 day.
Data set [16] can be described thus: Acute toxicity in mouse assessed as pathological damage in lung at 100 to 200 mg/kg,IG and measured after 14 days by H and E staining based microscopy. The settings on record: in vivo, po, 336 h, dose 100-200 mg/kg, time 14 day. Format: organism-based.
Data set [17] can be described thus: Acute toxicity in mouse assessed as pathological damage in kidney at 100 to 200 mg/kg,IG and measured after 14 days by H and E staining based microscopy. The settings on record: in vivo, po, 336 h, dose 100-200 mg/kg, time 14 day. Type of data set: organism-based.

One may read the Kd as the equilibrium constant for the complex coming apart. As a reminder, the CC50 is the concentration at which the toxic effect on the cells reaches its halfway point.

Calls of active or inactive are those of the source. The calls are words filed in the database; no cut-off is given here. Bounds are passed on as bounds.

Receptor-interacting serine/threonine-protein kinase 3, sequence (Q9Y572 whole entry): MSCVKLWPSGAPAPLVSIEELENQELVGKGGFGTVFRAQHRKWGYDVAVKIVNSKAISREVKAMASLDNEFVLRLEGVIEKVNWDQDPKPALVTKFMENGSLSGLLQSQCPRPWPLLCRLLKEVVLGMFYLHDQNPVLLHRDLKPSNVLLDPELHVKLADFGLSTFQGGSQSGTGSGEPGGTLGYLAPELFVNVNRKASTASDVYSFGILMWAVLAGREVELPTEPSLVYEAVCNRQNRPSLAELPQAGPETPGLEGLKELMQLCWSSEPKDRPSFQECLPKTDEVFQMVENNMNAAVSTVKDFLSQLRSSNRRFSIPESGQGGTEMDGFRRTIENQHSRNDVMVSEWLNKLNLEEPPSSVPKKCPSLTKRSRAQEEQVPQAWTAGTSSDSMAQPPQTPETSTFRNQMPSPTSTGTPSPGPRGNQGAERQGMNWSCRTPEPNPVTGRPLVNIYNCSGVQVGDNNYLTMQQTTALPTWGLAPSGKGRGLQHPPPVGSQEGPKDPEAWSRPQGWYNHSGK

As for `O=C(Cc1cccc(OC(F)(F)F)c1)Nc1cc(-c2ccc3nc(NC(=O)C4CC4)sc3c2)ccc1F`, the figures for the dissociation constant (Kd) in data set [1] and in data set [2] were 17 nM and greater than 5 µM, respectively. In [3], the CC50 is greater than 10 µM. Moreover, the Activity entry in the data set on HT-29 [4] was “Dose-Dependent Effect”; in the data set with Mus musculus [7] it was “Dose-Dependent Effect”; with Mus musculus [8], “Dose-Dependent Effect”; in [14], “Non-Toxic”; in data set [15], “Non-Toxic”; in data set [16], “Non-Toxic”. Moreover, the Activity result in data set [17] is listed as “Non-Toxic”. For the same compound, the result with HT-29 [5], with Mus musculus [9], in the data set with Mus musculus [10], in the data set with Mus musculus [11] and in the data set with Mus musculus [12] was inactive. Moreover, in data set [6], the inhibition entry was “Dose-Dependent Effect”. The outcome in the data set with Mus musculus [13] was Active.
